Source: patent US6958321B2, “Isolation, characterization, cloning and use of a mushroom lectin” (The Regents of the University of Michigan, priority 2001, dated 2005)

Key:
intact native MOA (nMOA) = molecular target: T1, intact native MOA (nMOA) (Marasmius oreades, UniProt Q8X123); test: Isothermal titration calorimetry, intact native MOA (nMOA); format: binding; details: read-out: Ka, nMOA (converted)
T1 sequence (Q8X123 1-293): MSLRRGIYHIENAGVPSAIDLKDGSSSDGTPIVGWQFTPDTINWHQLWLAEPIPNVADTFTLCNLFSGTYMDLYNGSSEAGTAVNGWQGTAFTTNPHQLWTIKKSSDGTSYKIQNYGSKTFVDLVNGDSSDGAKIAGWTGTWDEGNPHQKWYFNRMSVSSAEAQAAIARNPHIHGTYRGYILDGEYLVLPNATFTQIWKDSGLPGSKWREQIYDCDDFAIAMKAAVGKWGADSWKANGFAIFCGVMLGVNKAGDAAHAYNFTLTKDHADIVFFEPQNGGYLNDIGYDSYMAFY
Experimental: (§1) As this volume underfills the titration cell, variable volume calculations were applied, using the Bindworks software installed in the instrument. […] Finally, the trisaccharide L-Fucα1,2Ga1β1,4G1c (fucosyllactose), related to the blood group H trisaccbaride, was assayed. […] While not to be limited to any particular mechanism, it is believed that this may be the reason that MOA recognizes and agglutinates human O erythrocytes to a limited extent, and gives a weak precipitin curve with blood group H substance.
(§2) Purification of recombinant MOA and native intact MOA-Recombinant MOA was purified from the soluble fraction by absorption on a column of melibiose-Sepharose and elution by lactose. Further purification was carried out on an affinity column of Synsorb B. Except for the diaminopropane elution, all affinity purifications were carried out in PBS, pH 7.2, containing 1.25 mM EDTA. After purification, lectin solutions were dialyzed against distilled water and lyophilized. […] Intact native MOA was prepared with a purification procedure (Example 2) that utilized a protease inhibitor cocktail (product P8215, Sigma, St. Louis, Mo.) which was added at the level of 0.1 ml/100 ml extract buffer (instead of phenylmethylsulfonyl fluoride), all buffers lacked Ca^++ and contained 1.25 mM EDTA, and the initial extraction and ammonium sulfate fractionations were carried out under an atmosphere of argon.
(§3) Binding constants of several relevant oligosaccharides to recombinant and intact native MOA were determined calorimetrically.

recombinant MOA (rMOA) = molecular target: T2, recombinant MOA (rMOA) (Marasmius oreades, UniProt Q8X123); test: Isothermal titration calorimetry, recombinant MOA (rMOA); format: binding; details: read-out: Ka, rMOA (converted)
T2 sequence (Q8X123 1-293): T1 sequence (Q8X123 1-293)
Experimental: as §1
Expression and characterization of recombinant MOA: A full-length PCR product incorporating NdeI and EcoRI into its forward and reverse primers, respectively, was cloned into PCR Blunt II using topoisomerase (Invitrogen) and subsequently shuttled into an IPTG inducible pT7 expression vector (MOApT7LO). Recombinant MOA was expressed in a Nova Blue DE3 strain of E. coli. Expressing bacteria were collected by centrifugation and resuspended in a lysis buffer consisting of 50 mM NaH2PO4, 300 mM NaCl, 10 mM imidizole, 10mM 2-mercaptoethanol, 1 mM phenylmethylsulfonyl fluoride, 1% NP-40, and a protease inhibitor cocktail. The extract was twice run through a french press. The insoluble fraction was removed by centrifugation (10,000×g, 15 min).
as §2, §3

MOA = test: Sugar ligand binding to MOA (hemagglutination inhibition, hapten inhibition of precipitation, calorimetry); parameters: species or system Marasmius oreades; details: binding to MOA in solution
Experimental: All three methods gave approximately the same results, with the calorimetric data being the most precise.
Being a blood type B agglutinin, MOA was assayed primarily against D-galactosyl-terminated sugars and oligosaccharides. […] Methyl α-galactopyranoside was similarly very poor. […] While not limited to any particular mechanism, and with the understanding that knowledge of the underlying mechanism is not required for the practice of the invention, it is believed that recognition of the L-fucosyl moiety is the reason for limited agglutination of human O erythrocytes and a weak precipitin curve with blood group H substance.

[1] = molecular target: T3, Marasmius oreades lectin (MOA, cMOA) (Marasmius oreades, UniProt Q8X123); test: Isothermal titration calorimetry, MOA of Example 1 (proteolyzed, clipped form, cMOA); format: binding; details: for Ka / Kd / TΔS / −ΔG / −ΔH / ligand binding: isothermal titration calorimetry; for Ka, cMOA: proteolyzed (clipped) native lectin, Table 6
T3 sequence (Q8X123 1-293): T1 sequence (Q8X123 1-293)

immobilized MOA = test: Binding to MOA-Sepharose 4B affinity column; parameters: species or system Marasmius oreades; details: washed with PBS, eluted with 20 mM diaminopropane
Excerpt: Further insight into the carbohydrate specificity of MOA was obtained by using immobilized MOA. Immobilization of MOA on a variety of supports is contemplated. In one embodiment, MOA is immobilized on a matrix that can be used in an affinity column (see below). In some embodiments, the matrix comprises Sepharose 4B beads. In some Embodiments, the MOA-conjugated Sepharose 4B beads are packed in a column for binding and affinity isolation and purification studies. Briefly, the MOA-Sepharose column is loaded with glycan, glycoconjugate or serum sample to be tested, then washed with an appropriate buffer (including but not limited to PBS). Bound components are eluted with a suitable elution buffer (including but not limited to 1,3-diaminopropane in NaCl), and the collected fractions are analyzed for the presence of protein or glycan (see Example 6 below). The fractions containing the bound components (eluted as described herein) can be pooled and concentrated.
MOA was immobilized on cyanogen bromide-activated Sepharose 4B as follows. 1.5 g of cyanogen bromide-activated Sepharose 4B was allowed to swell in 100 ml of 1 mM HCl solution for 30 min. The supernatant was removed and the swollen beads (6 ml) were filtered on a sintered funnel, washed several times with 100 ml of 1 mM HCl and finally with 20 ml of 0.1 M sodium bicarbonate buffer, pH 8.3, containing 0.5 M sodium chloride. The beads were quickly transferred to a plastic bottle containing 16.2 mg MOA in the same buffer (10 ml) containing 0.2 M lactose. The plastic bottle was shaken at room temperature for 6 hr and at 4° C. overnight. The beads were filtered on a sintered glass funnel, washed with the coupling buffer, and then shaken in 1 M ethanolamine (12 ml) at room temperature for 2.5 hr to cap all of the unreacted iminocarbonate groups. The beads were filtered, washed alternately with the coupling buffer then sodium acetate buffer (0.1 M, pH 4.0 containing 0.5 M NaCl) four times. A column (1×7 cm) packed with the beads was finally washed with PBS containing 0.04% sodium azide. The beads contained 2.3 mg MOA per ml Sepharose 4B, based on MOA remaining in solution.
In order to assess the binding of various glycans, glycoconjugates and serum samples to MOA-Sepharose, the following general procedure was used. The MOA-Sepharose column was loaded with glycan, glycoconjugate or serum sample (0.6-5 ml) and washed with PBS (15 ml). The bound components were eluted with 20 mM 1,3-diaminopropane in 0.15 M NaCl (15 ml). The fractions collected (1 ml) were neutralized with 1 M phosphoric acid (approximately 16 μl), and analyzed by either absorbance at 280 nm for protein, or by phenol-sulfuric acid assay, as described by Dubois et al. [Anal. Chem. 28: 350 (1956)] for the glycan. The column was finally washed thoroughly with PBS. The fractions containing the bound components were pooled and concentrated by Amicon ultrafiltration (Millipore Corp., Bedford, Mass.) using a membrane (YM10) of 10,000 molecular weight cut-off.

| Molecule | Kd (recombinant MOA (rMOA)) | ligand binding (MOA) | Ka [1] | Kd [1] | TΔS [1] | −ΔG [1] | −ΔH [1] | Ka ([1]; Table 3) | other results |
| --- | --- | --- | --- | --- | --- | --- | --- | --- | --- |
| OC[C@H]1O[C@H](O[C@H]2[C@@H](O)[C@@H](CO)O[C@@H](O[C@H]3[C@H](O)[C@@H](O)C(O)O[C@@H]3CO)[C@@H]2O)[C@H](O)[C@@H](O)[C@H]1O (some centres unmarked) [Galα1,3Galβ1,4Glc] | 75.8 µM | – | – | – | – | – | – | – | Kd (intact native MOA (nMOA)): 59.9 µM |
| CC1OC(OC2C(OC3C(CO)OC(O)C(O)C3O)OC(CO)C(O)C2O)C(O)C(O)C1O [2′ Fucosyllactose, L-Fucα1,2Ga1β1,4G1c] | – | low but measurable binding | 548 M⁻¹ | 1.83 mM | 6.4 kcal/mol | 3.70 kcal/mol | 10.1 kcal/mol | .548 10^3 M^−1 | – |
| OC[C@H]1O[C@H](OCC2O[C@@H](O)[C@H](O)[C@@H](O)[C@@H]2O)[C@H](O)[C@@H](O)[C@H]1O (stereo partly drawn) [melibiose, Ga1α1,6G1c] | – | very poor ligands | – | – | – | – | – | – | – |
| OC[C@H]1O[C@@H](O[C@H]2[C@H](O)[C@@H](O)C(O)O[C@@H]2CO)[C@H](O)[C@@H](O)[C@H]1O (some centres unmarked) [Lactose] | – | very poor ligands | 185 M⁻¹ | 5.08 mM | 5.76 kcal/mol | 3.1 kcal/mol | 8.86 kcal/mol | 0.197 10^3 M^−1 | – |
| OC[C@H]1O[C@@H](OC[C@H]2OC(O)[C@H](O)[C@@H](O)[C@H]2O)[C@H](O)[C@@H](O)[C@H]1O (some centres unmarked) [Galβ1,6Gal] | – | – | – | – | 2.84 kcal/mol | 3.28 kcal/mol | 6.12 kcal/mol | – | – |
| CC(=O)N[C@H]1C(O)O[C@H](CO)[C@@H](O[C@@H]2O[C@H](CO)[C@H](O)[C@H](O[C@H]3O[C@H](CO)[C@H](O)[C@H](O)[C@H]3O)[C@H]2O)[C@@H]1O (some centres unmarked) [Linear B2 trisacc., Galα1,3Galβ1,4GlcNAc] | 33 µM | – | 9700 M⁻¹ | 0.103 mM | 15.2 kcal/mol | 5.39 kcal/mol | 20.6 kcal/mol | 9.753 10^3 M^−1 | Kd (intact native MOA (nMOA)): 25.4 µM; increase of binding relative to Galα1,3Gal ([1]; addition of a GlcNAc group to the reducing end): approximately 50%; Ka, cMOA [1]: 9.75 10^3 M^−1 |
| CO[C@H]1O[C@H](CO)[C@H](O)[C@H](O)[C@H]1O [Me-α-Gal, Methyl α-galactopyranoside] | – | very poor | – | 8.13 mM | 3.06 kcal/mol | 2.82 kcal/mol | 5.88 kcal/mol | 0.123 10^3 M^−1 | – |
| C[C@@H]1O[C@@H](O[C@H]2C(O)O[C@H](CO)[C@H](O)[C@@H]2O[C@H]2O[C@H](CO)[C@H](O)[C@H](O)[C@H]2O)[C@@H](O)[C@H](O)[C@@H]1O (some centres unmarked) [B trisaccharide, Galα1,3[Fucα1,2]Gal] | 21.7 µM | – | 36000 M⁻¹ | 0.036 mM | 14.6 kcal/mol | 6.01 kcal/mol | 20.6 kcal/mol | 27.8 10^3 M^−1 | enhancement of affinity to MOA relative to Galα1,3Gal ([1]; addition of an L-fucosyl group): 4 fold; Ka, cMOA [1]: 27.8 10^3 M^−1 |
| OCC1OC(OC2C(O)OC(CO)C(O)C2O)C(O)C(O)C1O (stereo not drawn) [Galβ1,2Gal, Ga1α1,2Ga1] | – | bound poorly or not at all | – | > 10 mM | – | – | – | <0.1 10^3 M^−1 | ligand binding ([1]; Table 3): bound poorly or not at all |
| degalactosylated bovine thyroglobulin: α-galactosidase-digested bovine thyroglobulin | – | – | – | – | – | – | – | – | binding to MOA-Sepharose column (immobilized MOA): passed through the column |
| OC[C@H]1O[C@H](O[C@H]2[C@@H](O)[C@@H](CO)OC(O)[C@@H]2O)[C@H](O)[C@@H](O)[C@H]1O (some centres unmarked) [Galα1,3Gal] | 37.5 µM | excellent ligand | 6000 M⁻¹ | 0.182 mM | 15.0 kcal/mol | 5.05 kcal/mol | 20.1 kcal/mol | 5.48 10^3 M^−1 | Kd (intact native MOA (nMOA)): 36.6 µM; affinity constant relative to that for Meα-Gal [1]: 44 fold; ligand binding ([1]; Table 3): excellent ligand; Ka, cMOA [1]: 5.48 10^3 M^−1 |
| asialofetuin: asialofetuin, with terminal Galβ1,4GlcNAc residues | – | – | – | – | – | – | – | – | binding to MOA-Sepharose column (immobilized MOA): passed through the column |
| OCC1OC(OC2C(CO)OC(O)C(O)C2O)C(O)C(O)C1O (stereo not drawn) [Galβ1,4Gal, G1α1,4Ga1] | – | bound poorly or not at all | – | > 10 mM | – | – | – | <0.1 10^3 M^−1 | ligand binding ([1]; Table 3): bound poorly or not at all |
| CO[C@@H]1O[C@H](CO)[C@@H](O)[C@H](O[C@@H]2O[C@H](CO)[C@H](O)[C@H](O)[C@H]2O)[C@H]1NC(C)=O [LactoNbioseβMe] | – | – | – | 4.67 mM | 3.49 kcal/mol | 3.15 kcal/mol | 6.64 kcal/mol | 0.214 10^3 M^−1 | – |
| Ga1α1,6Ga1 | – | bound poorly or not at all | – | – | – | – | – | – | ligand binding ([1]; Table 3): bound poorly or not at all |
| CC(=O)N[C@H]1C(O)O[C@H](CO)[C@@H](O[C@@H]2O[C@H](CO)[C@H](O)[C@H](O)[C@H]2O)[C@@H]1O (some centres unmarked) [LacNAc, N-acetyllactosamine] | 1490 µM | very poor ligands | – | 3.45 mM | 10.9 kcal/mol | 3.33 kcal/mol | 14.22 kcal/mol | 0.290 10^3 M^−1 | Kd (intact native MOA (nMOA)): 2630 µM; Ka, cMOA [1]: 0.29 10^3 M^−1 |
